# Measured values as given in ChEMBL document CHEMBL4270599, “Synthesis of a 3'-C-ethynyl-β-d-ribofuranose purine nucleoside library: Discovery of C7-deazapurine analogs as potent antiproliferative nucleosides” (Eur J Med Chem, 2018).
# Tests used:
# Format in all cases: functional
# SR = experiment: Cytotoxicity against human SR cells after 48 hrs by SRB assay
# EKVX = experiment: Cytotoxicity against human EKVX cells after 48 hrs by SRB assay
# NCI-H226 = experiment: Cytotoxicity against human NCI-H226 cells after 48 hrs by SRB assay; details: NCI-H226, 48 h
# COLO 205 [1] = experiment: Cytotoxicity against human COLO205 cells after 48 hrs by SRB assay; details: COLO 205, 48 h
# OVCAR-3 = experiment: Cytotoxicity against human OVCAR3 cells after 48 hrs by SRB assay; details: OVCAR-3, 48 h
# NCI/ADR-RES = experiment: Cytotoxicity against human NCI-ADR-RES cells after 48 hrs by SRB assay
# HL-60(TB) = experiment: Growth inhibition of human HL-60(TB) cells assessed as cell growth at 10^-8 M incubated for 48 hrs by sulforhodamine B assay relative to control; details: HL-60, 48 h, read-out: Activity
# NCI-H322M = experiment: Growth inhibition of human NCI-H322M cells assessed as cell growth at 10^-8 M incubated for 48 hrs by sulforhodamine B assay relative to control; details: read-out: Activity
# NCI-H522 = experiment: Growth inhibition of human NCI-H522 cells assessed as cell growth at 10^-8 M incubated for 48 hrs by sulforhodamine B assay relative to control; details: NCI-H522, 48 h, read-out: Activity
# COLO 205 [2] = experiment: Growth inhibition of human COLO205 cells assessed as cell growth at 10^-8 M incubated for 48 hrs by sulforhodamine B assay relative to control; details: COLO 205, 48 h, read-out: Activity
# SF-268 = experiment: Growth inhibition of human SF268 cells assessed as cell growth at 10^-8 M incubated for 48 hrs by sulforhodamine B assay relative to control; details: SF-268, 48 h, read-out: Activity
# TK-10 = experiment: Growth inhibition of human TK10 cells assessed as cell growth at 10^-8 M incubated for 48 hrs by sulforhodamine B assay relative to control; details: TK-10, 48 h, read-out: Activity
# MDA-MB-468 = experiment: Growth inhibition of human MDA-MB-468 cells assessed as cell growth at 10^-8 M incubated for 48 hrs by sulforhodamine B assay relative to control; details: MDA-MB-468, 48 h, read-out: Activity
# COLO 205 [3] = experiment: Growth inhibition of human COLO205 cells assessed as cell growth at 10^-7 M incubated for 48 hrs by sulforhodamine B assay relative to control; details: COLO 205, 48 h, read-out: Activity
# KM12 [4] = experiment: Growth inhibition of human KM12 cells assessed as cell growth at 10^-7 M incubated for 48 hrs by sulforhodamine B assay relative to control; details: KM12, 48 h, read-out: Activity
# MDA-MB-435 = experiment: Growth inhibition of human MDA-MB-435 cells assessed as cell growth at 10^-7 M incubated for 48 hrs by sulforhodamine B assay relative to control; details: MDA-MB-435, 48 h, read-out: Activity
# SK-MEL-28 = experiment: Growth inhibition of human SK-MEL-28 cells assessed as cell growth at 10^-7 M incubated for 48 hrs by sulforhodamine B assay relative to control; details: SK-MEL-28, 48 h, read-out: Activity
# OVCAR-5 = experiment: Growth inhibition of human OVCAR5 cells assessed as cell growth at 10^-7 M incubated for 48 hrs by sulforhodamine B assay relative to control; details: OVCAR-5, 48 h, read-out: Activity
# OVCAR-8 = experiment: Growth inhibition of human OVCAR8 cells assessed as cell growth at 10^-7 M incubated for 48 hrs by sulforhodamine B assay relative to control; details: OVCAR-8, 48 h, read-out: Activity
# T47D = experiment: Growth inhibition of human T47D cells assessed as cell growth at 10^-7 M incubated for 48 hrs by sulforhodamine B assay relative to control; details: read-out: Activity
# HCC 2998 = experiment: Growth inhibition of human HCC2998 cells assessed as cell growth at 10^-6 M incubated for 48 hrs by sulforhodamine B assay relative to control; details: HCC 2998, 48 h, read-out: Activity
# SNB-19 = experiment: Growth inhibition of human SNB19 cells assessed as cell growth at 10^-6 M incubated for 48 hrs by sulforhodamine B assay relative to control; details: SNB-19, 48 h, read-out: Activity
# 786-0 = experiment: Growth inhibition of human 786-0 cells assessed as cell growth at 10^-6 M incubated for 48 hrs by sulforhodamine B assay relative to control; details: 786-0, 48 h, read-out: Activity
# PC-3 = experiment: Growth inhibition of human PC3 cells assessed as cell growth at 10^-6 M incubated for 48 hrs by sulforhodamine B assay relative to control; details: PC-3, 48 h, read-out: Activity
# MDA-MB-231 [5] = experiment: Growth inhibition of human MDA-MB-231 cells assessed as cell growth at 10^-6 M incubated for 48 hrs by sulforhodamine B assay relative to control; details: MDA-MB-231, 48 h, read-out: Activity
# MDA-MB-231 [6] = experiment: Growth inhibition of human MDA-MB-231 cells assessed as cell growth at 10^-5 M incubated for 48 hrs by sulforhodamine B assay relative to control; details: MDA-MB-231, 48 h, read-out: Activity
# BT-549 = experiment: Growth inhibition of human BT549 cells assessed as cell growth at 10^-5 M incubated for 48 hrs by sulforhodamine B assay relative to control; details: BT-549, 48 h, read-out: Activity
# CCRF-CEM = experiment: Growth inhibition of human CCRF-CEM cells assessed as cell growth at 10^-4 M incubated for 48 hrs by sulforhodamine B assay relative to control; details: read-out: Activity
# HCT-15 = experiment: Growth inhibition of human HCT15 cells assessed as cell growth at 10^-4 M incubated for 48 hrs by sulforhodamine B assay relative to control; details: HCT-15, 48 h, read-out: Activity
# KM12 [7] = experiment: Growth inhibition of human KM12 cells assessed as cell growth at 10^-4 M incubated for 48 hrs by sulforhodamine B assay relative to control; details: KM12, 48 h, read-out: Activity
# UACC-62 [8] = experiment: Growth inhibition of human UACC62 cells assessed as cell growth at 10^-7 M incubated for 48 hrs by sulforhodamine B assay relative to control; details: UACC-62, 48 h, read-out: Activity
# UACC-62 [9] = experiment: Growth inhibition of human UACC62 cells assessed as cell growth at 10^-5 M incubated for 48 hrs by sulforhodamine B assay relative to control; details: UACC-62, 48 h, read-out: Activity
# [10] = read-out: LC50 (the source's name)
# [11] = read-out: pLC50 (the source's name) (converted)
compound,measurement,setting,value
C#C[C@@]1(O)[C@@H](CO)O[C@@H](n2cc(F)c3c(N)ncnc32)[C@@H]1O,CC50,SR; [10],> 100000 nM
same,TGI,SR; read-out: TGI,> 100000 nM
same,GI50,SR; read-out: pGI50 (converted),186 nM
same,TGI,SR; read-out: pTGI,> 100000 nM
same,CC50,EKVX; [10],> 100000 nM
same,TGI,EKVX; read-out: TGI,11300 nM
same,GI50,EKVX; read-out: pGI50 (converted),676 nM
same,TGI,EKVX; read-out: pTGI (converted),11200 nM
same,TGI,NCI-H226; read-out: TGI,2630 nM
same,GI50,NCI-H226; read-out: pGI50 (converted),525 nM
same,CC50,NCI-H226; [11],> 100000 nM
same,TGI,NCI-H226; read-out: pTGI (converted),2630 nM
same,GI50,COLO 205 [1]; read-out: GI50,263 nM
same,TGI,COLO 205 [1]; read-out: TGI,1300 nM
same,GI50,COLO 205 [1]; read-out: pGI50 (converted),263 nM
same,CC50,COLO 205 [1]; [11],9330 nM
same,TGI,COLO 205 [1]; read-out: pTGI (converted),1290 nM
same,CC50,OVCAR-3; [10],> 100000 nM
same,TGI,OVCAR-3; read-out: TGI,> 100000 nM
same,GI50,OVCAR-3; read-out: pGI50 (converted),1120 nM
same,TGI,OVCAR-3; read-out: pTGI (converted),> 100000 nM
same,TGI,NCI/ADR-RES; read-out: TGI,11300 nM
same,GI50,NCI/ADR-RES; read-out: pGI50 (converted),309 nM
same,CC50,NCI/ADR-RES; [11],> 100000 nM
same,TGI,NCI/ADR-RES; read-out: pTGI (converted),11200 nM
same,growth at 0.01 µM,HL-60(TB),93%
same,growth at 0.01 µM,NCI-H322M,93%
same,growth at 0.01 µM,NCI-H522,84%
same,growth at 0.01 µM,COLO 205 [2],101%
same,growth at 0.01 µM,SF-268,100%
same,growth at 0.01 µM,TK-10,95%
same,growth at 0.01 µM,MDA-MB-468,92%
same,growth at 0.1 µM,COLO 205 [3],81%
same,growth at 0.1 µM,KM12 [4],85%
same,growth at 0.1 µM,MDA-MB-435,86%
same,growth at 0.1 µM,SK-MEL-28,95%
same,growth at 0.1 µM,OVCAR-5,108%
same,growth at 0.1 µM,OVCAR-8,74%
same,growth at 0.1 µM,T47D,80%
same,growth at 1 µM,HCC 2998,37%
same,growth at 1 µM,SNB-19,39%
same,growth at 1 µM,786-0,43%
same,growth at 1 µM,PC-3,11%
same,growth at 1 µM,MDA-MB-231 [5],22%
same,growth at 10 µM,MDA-MB-231 [6],-24%
same,growth at 10 µM,BT-549,-28%
same,growth at 100 µM,CCRF-CEM,1%
same,growth at 100 µM,HCT-15,-33%
same,growth at 100 µM,KM12 [7],-10%
same,growth at 0.1 µM,UACC-62 [8],91%
same,growth at 10 µM,UACC-62 [9],-60%
